Columns and labels:
ALDH1A1 enzyme = molecular target: T1, ALDH1A1 enzyme (Homo sapiens, UniProt P00352); assay: ALDH1A1 enzymatic assay (in vitro); format: biochemical; settings: ALDH1A1 enzyme 20 nM, NAD+ 1 mM, propionaldehyde 80 μM; read-out: ALDH1A1 IC50
T1 sequence (P00352 1-501): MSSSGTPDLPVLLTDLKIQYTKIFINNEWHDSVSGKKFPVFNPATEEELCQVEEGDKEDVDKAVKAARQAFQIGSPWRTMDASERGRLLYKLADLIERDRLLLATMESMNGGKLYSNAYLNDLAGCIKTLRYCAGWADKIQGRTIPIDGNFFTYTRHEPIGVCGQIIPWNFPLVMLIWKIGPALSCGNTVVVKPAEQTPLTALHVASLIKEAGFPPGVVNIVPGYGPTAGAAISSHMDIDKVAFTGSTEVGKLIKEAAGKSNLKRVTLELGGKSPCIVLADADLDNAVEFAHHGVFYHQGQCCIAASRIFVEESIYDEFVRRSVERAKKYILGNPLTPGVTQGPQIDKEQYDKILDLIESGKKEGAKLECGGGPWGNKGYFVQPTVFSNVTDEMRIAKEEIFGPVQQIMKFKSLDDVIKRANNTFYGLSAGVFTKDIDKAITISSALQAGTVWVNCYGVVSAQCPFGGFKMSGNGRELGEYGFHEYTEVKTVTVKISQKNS
Procedure, shortened: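 ALDH1A1 (20 nM final) in 100 mM HEPES pH 7.5, 0.01% Tween 20 was preincubated 15 min at RT with compound (968 pM–57.2 μM final), then started with 1 mM NAD+ and 80 μM propionaldehyde. NADH fluorescence (ex 340/em 450 nm) followed kinetically for 10 min; change normalized to no-inhibitor and no-enzyme controls for percent inhibition and curve fitting.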

MIA PaCa-2 cells = assay: MIA PaCa2 cell-based assay (1,536-well high-content imaging ALDEFLUOR assay); design: species or system human; settings: Homo sapiens, 0.5 h, ALDEFLUOR BAAA substrate 500 nM, 30 minutes
Procedure, shortened: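 High-content ALDEFLUOR imaging readout: BAA-retaining cells in FITC channel scored against Hoechst-counted nuclei. Before imaging, MIA PaCa-2 cells seeded at 1,000 per well received final 500 nM BAAA and 0.5 nM Hoechst with compounds in 16-point series (1.4 nM to 47.8 μM), 30 min, 37° C.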

SMILES	IC50 (ALDH1A1 enzyme) [nM]	IC50 (MIA PaCa-2 cells) [nM]
CC1(C#N)CCN(c2c(C(=O)N3CCN(C(=O)C4CC4)CC3)cnc3c(F)cc(F)cc23)CC1 [Example 125, 1-(3-(4-(cyclopropanecarbonyl)piperazine-1-carbonyl)-6,8-difluoroquinolin-4-yl)-4-methylpiperidine-4-carbonitrile]	< 500	1000 to 10000
CC1(C#N)CCN(c2c(C(=O)N3CCN(C(=O)C4CC4)CC3)cnc3cc(F)c(F)cc23)CC1 [Example 126, 1-(3-(4-(cyclopropanecarbonyl)piperazine-1-carbonyl)-6,7-difluoroquinolin-4-yl)-4-methylpiperidine-4-carbonitrile]	< 500	1000 to 10000
COc1c(F)cc2c(N3CCC(C)(C#N)CC3)c(C(=O)N3CCN(C(=O)C4CC4)CC3)cnc2c1F [Example 127, 1-(3-(4-(cyclopropanecarbonyl)piperazine-1-carbonyl)-6,8-difluoro-7-methoxyquinolin-4-yl)-4-methylpiperidine-4-carbonitrile]	< 500	1000 to 10000
CC1(C#N)CCN(c2c(C(=O)N3CCN(C(=O)C4CC4)CC3)cnc3c(F)c(F)c(F)cc23)CC1 [Example 128, 1-(3-(4-(cyclopropanecarbonyl)piperazine-1-carbonyl)-6,7,8-trifluoroquinolin-4-yl)-4-methylpiperidine-4-carbonitrile]	< 500	1000 to 10000
COc1ccc2c(N3CCC4(CC3)OCCO4)c(C(=O)N3CCN(S(C)(=O)=O)CC3)cnc2c1 [Example 129, (7-methoxy-4-(1,4-dioxa-8-azaspiro[4.5]decan-8-yl)quinolin-3-yl)(4-(methylsulfonyl)piperazin-1-yl)methanone]	< 500	1000 to 10000
COc1cc2ncc(C(=O)N3CCN(S(C)(=O)=O)CC3)c(N3CCC4(CC3)OCCO4)c2cc1OC [Example 130, (6,7-dimethoxy-4-(1,4-dioxa-8-azaspiro[4.5]decan-8-yl)quinolin-3-yl)(4-(methylsulfonyl)piperazin-1-yl)methanone]	< 500	1000 to 10000
CS(=O)(=O)N1CCN(C(=O)c2cnc3c(F)cc(F)cc3c2N2CCC3(CC2)OCCO3)CC1 [Example 131, (6,8-difluoro-4-(1,4-dioxa-8-azaspiro[4.5]decan-8-yl)quinolin-3-yl)(4-(methylsulfonyl)piperazin-1-yl)methanone]	< 500	1000 to 10000
CS(=O)(=O)N1CCN(C(=O)c2cnc3cc(F)c(F)cc3c2N2CCC3(CC2)OCCO3)CC1 [Example 132, (6,7-difluoro-4-(1,4-dioxa-8-azaspiro[4.5]decan-8-yl)quinolin-3-yl)(4-(methylsulfonyl)piperazin-1-yl)methanone]	< 500	1000 to 10000
COc1c(F)cc2c(N3CCC4(CC3)OCCO4)c(C(=O)N3CCN(S(C)(=O)=O)CC3)cnc2c1F [Example 133, (6,8-difluoro-7-methoxy-4-(1,4-dioxa-8-azaspiro[4.5]decan-8-yl)quinolin-3-yl)(4-(methylsulfonyl)piperazin-1-yl)methanone]	< 500	1000 to 10000
CS(=O)(=O)N1CCN(C(=O)c2cnc3c(F)c(F)c(F)cc3c2N2CCC3(CC2)OCCO3)CC1 [Example 134, (4-(methylsulfonyl)piperazin-1-yl)(6,7,8-trifluoro-4-(1,4-dioxa-8-azaspiro[4.5]decan-8-yl)quinolin-3-yl)methanone]	< 500	1000 to 10000
CC1(C#N)CCN(c2c(C(=O)N3CCN(S(C)(=O)=O)CC3)cnc3c(F)cc(F)cc23)CC1 [Example 135, 1-(6,8-difluoro-3-(4-(methylsulfonyl)piperazine-1-carbonyl)quinolin-4-yl)-4-methylpiperidine-4-carbonitrile]	< 500	1000 to 10000
CC1(C#N)CCN(c2c(C(=O)N3CCN(S(C)(=O)=O)CC3)cnc3cc(F)c(F)cc23)CC1 [Example 136, 1-(6,7-difluoro-3-(4-(methylsulfonyl)piperazine-1-carbonyl)quinolin-4-yl)-4-methylpiperidine-4-carbonitrile]	< 500	1000 to 10000
COc1c(F)cc2c(N3CCC(C)(C#N)CC3)c(C(=O)N3CCN(S(C)(=O)=O)CC3)cnc2c1F [Example 137, 1-(6,8-difluoro-7-methoxy-3-(4-(methylsulfonyl)piperazine-1-carbonyl)quinolin-4-yl)-4-methylpiperidine-4-carbonitrile]	< 500	500 to 1000
CC1(C#N)CCN(c2c(C(=O)N3CCN(S(C)(=O)=O)CC3)cnc3c(F)c(F)c(F)cc23)CC1 [Example 138, 4-methyl-1-(6,7,8-trifluoro-3-(4-(methylsulfonyl)piperazine-1-carbonyl)quinolin-4-yl)piperidine-4-carbonitrile]	< 500	1000 to 10000
CCNC(=O)N1CCN(C(=O)c2cnc3cc(OC)ccc3c2N2CCC3(CC2)OCCO3)CC1 [Example 139, N-ethyl-4-(7-methoxy-4-(1,4-dioxa-8-azaspiro[4.5]decan-8-yl)quinoline-3-carbonyl)piperazine-1-carboxamide]	< 500	1000 to 10000
CCNC(=O)N1CCN(C(=O)c2cnc3cc(OC)c(OC)cc3c2N2CCC3(CC2)OCCO3)CC1 [Example 140, 4-(6,7-dimethoxy-4-(1,4-dioxa-8-azaspiro[4.5]decan-8-yl)quinoline-3-carbonyl)-N-ethylpiperazine-1-carboxamide]	< 500	> 10000
CCNC(=O)N1CCN(C(=O)c2cnc3c(F)cc(F)cc3c2N2CCC3(CC2)OCCO3)CC1 [Example 141, 4-(6,8-difluoro-4-(1,4-dioxa-8-azaspiro[4.5]decan-8-yl)quinoline-3-carbonyl)-N-ethylpiperazine-1-carboxamide]	< 500	1000 to 10000

Now from value to molecule:

IC50 (ALDH1A1 enzyme) [nM]	IC50 (MIA PaCa-2 cells) [nM]	SMILES
< 500	> 10000	CCNC(=O)N1CCN(C(=O)c2cnc3cc(OC)c(OC)cc3c2N2CCC(C)(C#N)CC2)CC1 [Example 115, 4-(4-(4-cyano-4-methylpiperidin-1-yl)-6,7-dimethoxyquinoline-3-carbonyl)-N-ethylpiperazine-1-carboxamide]
< 500	1000 to 10000	CCOC(=O)N1CCN(C(=O)c2cnc3cc(OC)c(OC)cc3c2N2CCC(C)(C#N)CC2)CC1 [Example 116, Ethyl 4-(4-(4-cyano-4-methylpiperidin-1-yl)-6,7-dimethoxyquinoline-3-carbonyl)piperazine-1-carboxylate]
< 500	1000 to 10000	CC1(C#N)CCN(c2c(C(=O)N3CCN(C(=O)C4CC4)CC3)cnc3ccc(Cl)cc23)CC1 [Example 117, 1-(6-chloro-3-(4-(cyclopropanecarbonyl)piperazine-1-carbonyl)quinolin-4-yl)-4-methylpiperidine-4-carbonitrile]
< 500	1000 to 10000	CCC(=O)N1CCN(C(=O)c2cnc3ccc(Cl)cc3c2N2CCC(C)(C#N)CC2)CC1 [Example 118, 1-(6-chloro-3-(4-propionylpiperazine-1-carbonyl)quinolin-4-yl)-4-methylpiperidine-4-carbonitrile]
< 500	1000 to 10000	CC1(C#N)CCN(c2c(C(=O)N3CCN(S(C)(=O)=O)CC3)cnc3ccc(Cl)cc23)CC1 [Example 119, 1-(6-chloro-3-(4-(methylsulfonyl)piperazine-1-carbonyl)quinolin-4-yl)-4-methylpiperidine-4-carbonitrile]
< 500	1000 to 10000	CC1(C#N)CCN(c2c(C(=O)N3CCN(S(=O)(=O)C4CC4)CC3)cnc3ccc(Cl)cc23)CC1 [Example 120, 1-(6-chloro-3-(4-(cyclopropylsulfonyl)piperazine-1-carbonyl)quinolin-4-yl)-4-methylpiperidine-4-carbonitrile]
< 500	1000 to 10000	CCNC(=O)N1CCN(C(=O)c2cnc3ccc(Cl)cc3c2N2CCC(C)(C#N)CC2)CC1 [Example 121, 4-(6-chloro-4-(4-cyano-4-methylpiperidin-1-yl)quinoline-3-carbonyl)-N-ethylpiperazine-1-carboxamide]
< 500	1000 to 10000	COc1c(F)cc2c(N3CCC4(CC3)OCCO4)c(C(=O)N3CCN(C(=O)C4CC4)CC3)cnc2c1F [Example 123, (4-(cyclopropanecarbonyl)piperazin-1-yl)(6,8-difluoro-7-methoxy-4-(1,4-dioxa-8-azaspiro[4.5]decan-8-yl)quinolin-3-yl)methanone]
< 500	1000 to 10000	O=C(c1cnc2c(F)c(F)c(F)cc2c1N1CCC2(CC1)OCCO2)N1CCN(C(=O)C2CC2)CC1 [Example 124, (4-(cyclopropanecarbonyl)piperazin-1-yl)(6,7,8-trifluoro-4-(1,4-dioxa-8-azaspiro[4.5]decan-8-yl)quinolin-3-yl)methanone]
